Test results from patent US5428061A, “Organic nitrates and method for their preparation” (Schwarz Pharma AG, priority 1988, dated 1995).
Read-outs that look alike come from different tables or passages of the source. One block for each molecule: values may come before it.

What was measured:
[1] = test system: circulatory parameters of a dog that is awake; assay: Action of organic nitrates on circulatory parameters of the awake dog after intravenous or oral administration; format: in vivo; conditions: awake beagle dogs
Protocol: Administration of new organic nitrates to detect the nitrate action on the circulatory parameters of a dog that is awake.
The purpose of the test is to determine how the new organic nitrates act on various circulatory parameters of a dog that is awake after intravenous or oral administration. All experiments were carried out on trained beagle dogs; the circulatory parameters were measured with an arterial catheter tip manometer and a balloon catheter introduced into the V. jugularis. In order to describe the action on the arterial system, the systolic, mean and diastolic blood pressure (BP) and heart rate (HR) were measured. […] The low pressure system was measured through the central venous pressure (CVP) and the pulmonary arterial pressure (PAP). The control or reference product used was isosorbid-5-mononitrate (ISM-5).

[2] = test system: isolated perfused rat heart; assay: Coronary flow increase and tolerance in isolated perfused working rat heart; conditions: for Activity Drop in flow / Maximum Coronary Increase: 100 μM, isolated perfused rat hearts, n = 7; for Maximum Coronary Increase: x ± SEM
Description: Determining the lack of tolerance to the action of new organic nitrates on increasing coronary flow in isolated perfused heart.
The purpose of the present investigation was to study the action and the development of tolerance to new organic nitrate compounds on isolated perfused rat heart. For this purpose, a rat heart was isolated and prepared as a "working heart".
In this experimental arrangement, the heart performs defined circulatory work from which a defined oxygen consumption and coronary flow result. The action of nitrate-like compounds can be measured in this model by the drug-induced coronary flow increase.
The resistance of the coronary vessels on an isolated working rat heart was chosen as the parameter for the detection of the action of the nitrate. A rat heart with a weight of about one gram is perfused through the left auricle with a plasma-like solution which contains nutrients and is saturated with oxygen. The left ventricle pumps the solution into the aorta against a defined pressure. Corresponding to the physiological conditions, a part of this solution flows through the coronary vessels for supplying the heart itself. At a defined work of the heart, this fraction, from which the coronary resistance can be calculated, is constant. The addition of a nitrate or other coronary dilating drug causes a drop in this coronary resistance. Therefore, if a constant concentration of an organic nitrate is introduced to the heart, then, after an initial decrease of the resistance, a partial loss of activity occurs within 20 minutes. On this model, the substances also show a coronary dilating effect, but this is not followed by a loss in activity. The maximum drop of the coronary resistance is still completely present after 60 minutes. The tested compounds were compared in an equimolar dosage with 10^-4 M nitroglycerin trinitrate. Continuous infusion of nitroglycerin causes a rapid coronary flow increase by 7.6±1.88 ml/min gww (x±SD). […] Upon further perfusion, the action of nitroglycerin is unchanged. In this experimental model, the new nitrates also show a coronary flow increase, but this is followed by only a very slight drop in the activity.

guinea pig heart = assay: Coronary flow in working heart model (guinea pig heart); conditions: for EC25: Cavia porcellus, read-out: concentration for a coronary flow increase of 25%
Protocol: Finally, the action of N-(3-nitratopivaloyl)-cysteine ethyl ester (Nitrato-Piv-Cy-Et) was characterized on guinea pig heart. […] A flow increase of 25% is achieved even with 380 μg of nitrato-Piv-Cy-Et per liter of perfusion medium, corresponding to 1.3 μmole per liter. The corresponding concentration for glycerol trinitrate (GTN) with 5 mg/liter is at least a factor of 12 times higher. Thus, in the case of Nitrato-Piv-Cy-Et we are dealing with an especially active compound with regard to the vessels.

isolated guanyl cyclase = biological target: T1, isolated guanyl cyclase (Homo sapiens, UniProt Q02153); assay: Activation of isolated guanyl cyclase (cGMP formation); format: biochemical; conditions: isolated enzyme; for EC50: read-out: concentration necessary for one-half of the maximum activity (ED50) of guanyl cyclase
T1 sequence (Q02153 1-619): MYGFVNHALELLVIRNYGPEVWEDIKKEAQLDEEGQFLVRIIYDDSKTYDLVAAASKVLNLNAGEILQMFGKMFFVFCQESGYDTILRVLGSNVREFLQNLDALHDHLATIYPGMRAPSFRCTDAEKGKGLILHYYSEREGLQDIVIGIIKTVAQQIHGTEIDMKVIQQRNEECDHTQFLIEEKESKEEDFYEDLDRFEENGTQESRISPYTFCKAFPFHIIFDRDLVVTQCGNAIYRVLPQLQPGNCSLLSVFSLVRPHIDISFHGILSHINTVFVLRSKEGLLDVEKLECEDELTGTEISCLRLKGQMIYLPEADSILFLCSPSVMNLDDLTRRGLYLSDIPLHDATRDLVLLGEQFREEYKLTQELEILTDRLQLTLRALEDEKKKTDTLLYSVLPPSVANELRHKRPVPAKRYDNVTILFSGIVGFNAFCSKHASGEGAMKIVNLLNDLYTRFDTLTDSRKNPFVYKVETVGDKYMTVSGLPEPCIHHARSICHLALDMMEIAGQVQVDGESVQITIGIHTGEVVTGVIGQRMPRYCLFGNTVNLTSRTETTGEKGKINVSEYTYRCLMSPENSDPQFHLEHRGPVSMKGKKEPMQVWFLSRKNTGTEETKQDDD
T1 sequence (Q02108 1-690 partner): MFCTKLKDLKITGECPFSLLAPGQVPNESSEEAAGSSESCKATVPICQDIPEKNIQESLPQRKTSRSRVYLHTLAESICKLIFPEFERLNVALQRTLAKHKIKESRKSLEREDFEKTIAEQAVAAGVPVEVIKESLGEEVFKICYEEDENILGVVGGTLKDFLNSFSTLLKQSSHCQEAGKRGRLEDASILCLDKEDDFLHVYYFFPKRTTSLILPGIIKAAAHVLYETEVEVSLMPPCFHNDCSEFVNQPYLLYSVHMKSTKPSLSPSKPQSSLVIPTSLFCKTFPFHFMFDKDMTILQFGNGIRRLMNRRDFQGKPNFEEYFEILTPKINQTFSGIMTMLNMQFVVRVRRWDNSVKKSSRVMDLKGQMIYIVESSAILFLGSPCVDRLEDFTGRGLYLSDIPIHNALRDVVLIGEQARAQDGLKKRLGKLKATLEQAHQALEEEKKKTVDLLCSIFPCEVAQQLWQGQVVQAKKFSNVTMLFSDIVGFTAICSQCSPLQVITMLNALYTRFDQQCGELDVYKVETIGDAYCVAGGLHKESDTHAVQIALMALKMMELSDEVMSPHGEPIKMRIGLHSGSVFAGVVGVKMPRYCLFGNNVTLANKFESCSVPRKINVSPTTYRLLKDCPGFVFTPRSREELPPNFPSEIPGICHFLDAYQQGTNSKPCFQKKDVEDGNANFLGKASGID
Description: The concentration necessary for one-half of the maximum activity (ED50) of guanyl cyclase is around 200 μmole/liter. The corresponding value for GTN (in the presence of 5 mmoles/liter of cysteine) is approximately 80 μmoles/liter.

[3] = oral and intravenous administration
[4] = continuous infusion, 10^-4 M, isolated working rat heart
[5] = working heart model, guinea pig

Structure (SMILES): O=[N+]([O-])O[C@@H]1CO[C@H]2[C@@H]1OC[C@@H]2O [ISM-5, isosorbid-5-mononitrate]
extensibility of the air chamber [1, 3]: increased significantly
low pressure system pressure [1, 3]: decreased
mean pressure [1, 3]: hardly effected
systolic blood pressure [1, 3]: slight decrease

bioavailability (comparison between intravenous and oral administration) [1]: good bioavailability
EC50 (isolated guanyl cyclase): ~200 µM
Structure (SMILES): CCOC(=O)[C@H](CS)NC(=O)C(C)(C)CO[N+](=O)[O-] [N-(3-nitratopivaloyl)-cysteine ethyl ester]
course of action on circulatory parameters [1]: typical of a nitrate
Activity Drop in flow [2]: 5.2%
Maximum Coronary Increase [2]: 6.6 ± 0.88 ml/min gww
EC25 (guinea pig heart; working heart model, guinea pig, converted from μg per liter): 1.3 µM
EC25 (guinea pig heart; working heart model, guinea pig, per liter of perfusion medium): 0.38 µg/mL
weakening of the coronary dilating effect (tolerance development) (guinea pig heart; one hour drenching perfusion, any dose, guinea pig heart): No weakening of the coronary dilating effect
effect on coronary flow (guinea pig heart; working heart model, guinea pig, very low dose range): concentration-dependent increase of the coronary flow
activation of guanyl cyclase (formation of cGMP per unit time) (isolated guanyl cyclase): concentration-dependent activation of the enzyme
activation of guanyl cyclase without cysteine (isolated guanyl cyclase; in vitro, absence of cysteine): activation occurs in vitro even in the absence of cysteine

bioavailability (comparison between intravenous and oral administration) [1]: good bioavailability
Structure (SMILES): CCOC(=O)[C@H](CCSC)NC(=O)C(C)(C)CO[N+](=O)[O-] [N-(3-nitratopivaloyl)-methionine ethyl ester]
Activity Drop in flow [2]: 7.0%
Maximum Coronary Increase [2]: 8.3 ± 0.92 ml/min gww

Structure (SMILES): O=[N+]([O-])OCC(CO[N+](=O)[O-])O[N+](=O)[O-] [nitroglycerine, glycerol trinitrate, reference compound]
Activity Drop in flow [2]: 56.0%
Maximum Coronary Increase [2]: 7.6 ± 0.71 ml/min gww
coronary flow increase (x±SD) [2, 4]: 7.6±1.88 ml/min gww
decrease of flow within 20 minutes [2, 4]: 55.9%
EC25 (guinea pig heart; [5]): 5 µg/mL
factor by which the concentration for 25% flow increase is higher than for Nitrato-Piv-Cy-Et (guinea pig heart; [5]): ≥ 12 times
EC50 (isolated guanyl cyclase; in the presence of 5 mmoles/liter of cysteine): ~80 µM
